Test results published in ChEMBL document CHEMBL5052840, “Pharmaceutical compounds and therapeutic methods” (2020).
Activity calls are given as the source filed them. The rule behind the calls is not given here.

How the values were obtained:
[1] = molecular target: T1, Polycomb complex protein BMI-1 (Homo sapiens) (UniProt P35226); experiment: Inhibition of BMI1 in human Glioblastoma cell 3D spheres at 7 to 10 nM assessed as reduction in BMI1 protein levels measured by Western blotting method; format: cell-based; conditions: Glioblastoma cell line, dose 7-10 nM
T1 sequence (whole entry): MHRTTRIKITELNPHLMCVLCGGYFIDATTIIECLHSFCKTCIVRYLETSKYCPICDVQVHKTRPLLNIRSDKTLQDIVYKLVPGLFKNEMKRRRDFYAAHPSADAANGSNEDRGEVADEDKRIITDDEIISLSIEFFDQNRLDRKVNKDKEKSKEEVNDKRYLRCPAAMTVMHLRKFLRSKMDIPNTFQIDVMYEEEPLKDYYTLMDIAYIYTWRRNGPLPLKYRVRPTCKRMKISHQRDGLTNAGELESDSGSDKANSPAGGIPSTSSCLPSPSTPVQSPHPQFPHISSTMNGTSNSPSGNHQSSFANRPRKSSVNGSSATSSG

[2] = molecular target: T1, Polycomb complex protein BMI-1 (Homo sapiens); experiment: Inhibition of BMI1 in human Glioblastoma cell 3D spheres at 7 to 10 nM assessed as reduction in phospho-RB levels measured by Western blotting method; format: cell-based; conditions: Glioblastoma cell line, dose 7-10 nM
[3] = molecular target: T1, Polycomb complex protein BMI-1 (Homo sapiens); experiment: Inhibition of BMI1 in human Glioblastoma cell 3D spheres at 7 to 10 nM assessed as reduction in STAT1 levels measured by Western blotting method; format: cell-based; conditions: Glioblastoma cell line, dose 7-10 nM
[4] = Efflux ratio of apparent permeability across basolateral to apical membrane over apical to basolateral membrane in human Caco-2 cells measured by LC-MS analysis; format: ADME, cell-based
[5] = Plasma concentration in male C57BL/6 mouse at 10 mg/kg, ip administered as single dose measured at 1 hr measured by LC/MS-MS analysis; format: ADME, organism-based
[6] = Plasma concentration in male C57BL/6 mouse at 10 mg/kg, ip administered as single dose measured at 3 hrs measured by LC/MS-MS analysis; format: ADME, organism-based
[7] = Plasma concentration in male C57BL/6 mouse at 10 mg/kg, po administered as single dose measured at 0.35 hrs measured by LC/MS-MS analysis; format: ADME, organism-based
[8] = Plasma concentration in male C57BL/6 mouse at 10 mg/kg, po administered as single dose measured at 1 hr measured by LC/MS-MS analysis; format: ADME, organism-based
[9] = Plasma concentration in male C57BL/6 mouse at 10 mg/kg, po administered as single dose measured at 3 hrs measured by LC/MS-MS analysis; format: ADME, organism-based
[10] = Plasma concentration in male C57BL/6 mouse at 10 mg/kg, po administered as single dose measured at 6 hrs measured by LC/MS-MS analysis; format: ADME, organism-based
[11] = Brain concentration in male C57BL/6 mouse at 10 mg/kg, ip administered as single dose measured at 0.08 hrs measured by LC/MS-MS analysis; format: ADME, organism-based; conditions: read-out: Drug uptake
[12] = Brain concentration in male C57BL/6 mouse at 10 mg/kg, ip administered as single dose measured at 0.35 hrs measured by LC/MS-MS analysis; format: ADME, organism-based; conditions: read-out: Drug uptake
[13] = Brain concentration in male C57BL/6 mouse at 10 mg/kg, ip administered as single dose measured at 1 hr measured by LC/MS-MS analysis; format: ADME, organism-based; conditions: read-out: Drug uptake
[14] = Brain concentration in male C57BL/6 mouse at 10 mg/kg, ip administered as single dose measured at 6 hrs measured by LC/MS-MS analysis; format: ADME, organism-based; conditions: read-out: Drug uptake
[15] = Brain concentration in male C57BL/6 mouse at 10 mg/kg, ip administered as single dose measured at 12 hrs measured by LC/MS-MS analysis; format: ADME, organism-based; conditions: read-out: Drug uptake
[16] = Brain concentration in male C57BL/6 mouse at 10 mg/kg, ip administered as single dose measured at 24 hrs measured by LC/MS-MS analysis; format: ADME, organism-based; conditions: read-out: Drug uptake
[17] = Brain concentration in male C57BL/6 mouse at 10 mg/kg, po administered as single dose measured at 6 hrs measured by LC/MS-MS analysis; format: ADME, organism-based; conditions: read-out: Drug uptake
[18] = Brain concentration in male C57BL/6 mouse at 10 mg/kg, po administered as single dose measured at 12 hrs measured by LC/MS-MS analysis; format: ADME, organism-based; conditions: read-out: Drug uptake
[19] = Ratio of drug level in male C57BL/6 mouse brain to plasma at 10 mg/kg, ip administered as single dose measured at 3 hrs measured by LC/MS-MS analysis; format: ADME, organism-based; conditions: read-out: BPR
[20] = Ratio of drug level in male C57BL/6 mouse brain to plasma at 10 mg/kg, po administered as single dose measured at 0.08 hrs measured by LC/MS-MS analysis; format: ADME, organism-based; conditions: read-out: BPR
[21] = Ratio of drug level in male C57BL/6 mouse brain to plasma at 10 mg/kg, po administered as single dose measured at 0.35 hrs measured by LC/MS-MS analysis; format: ADME, organism-based; conditions: read-out: BPR
[22] = Ratio of drug level in male C57BL/6 mouse brain to plasma at 10 mg/kg, po administered as single dose measured at 1 hr measured by LC/MS-MS analysis; format: ADME, organism-based; conditions: read-out: BPR
[23] = Ratio of drug level in male C57BL/6 mouse brain to plasma at 10 mg/kg, po administered as single dose measured at 3 hrs measured by LC/MS-MS analysis; format: ADME, organism-based; conditions: read-out: BPR
[24] = Plasma concentration in male C57BL/6 mouse at 10 mg/kg, iv administered as single dose measured at 0.08 hrs measured by LC/MS-MS analysis; format: ADME, organism-based
[25] = Plasma concentration in male C57BL/6 mouse at 10 mg/kg, iv administered as single dose measured at 3 hrs measured by LC/MS-MS analysis; format: ADME, organism-based
[26] = Brain concentration in male C57BL/6 mouse at 10 mg/kg, iv administered as single dose measured at 0.08 hrs measured by LC/MS-MS analysis; format: ADME, organism-based; conditions: read-out: Drug uptake
[27] = Brain concentration in male C57BL/6 mouse at 10 mg/kg, iv administered as single dose measured at 0.35 hrs measured by LC/MS-MS analysis; format: ADME, organism-based; conditions: read-out: Drug uptake
[28] = Brain concentration in male C57BL/6 mouse at 10 mg/kg, iv administered as single dose measured at 1 hr measured by LC/MS-MS analysis; format: ADME, organism-based; conditions: read-out: Drug uptake
[29] = Brain concentration in male C57BL/6 mouse at 10 mg/kg, iv administered as single dose measured at 3 hrs measured by LC/MS-MS analysis; format: ADME, organism-based; conditions: read-out: Drug uptake
[30] = Brain concentration in male C57BL/6 mouse at 10 mg/kg, iv administered as single dose measured at 6 hrs measured by LC/MS-MS analysis; format: ADME, organism-based; conditions: read-out: Drug uptake
[31] = Ratio of drug level in male C57BL/6 mouse brain to plasma at 10 mg/kg, iv administered as single dose measured at 0.08 hrs measured by LC/MS-MS analysis; format: ADME, organism-based; conditions: read-out: BPR
[32] = Ratio of drug level in male C57BL/6 mouse brain to plasma at 10 mg/kg, iv administered as single dose measured at 0.35 hrs measured by LC/MS-MS analysis; format: ADME, organism-based; conditions: read-out: BPR
[33] = Ratio of drug level in male C57BL/6 mouse brain to plasma at 10 mg/kg, iv administered as single dose measured at 3 hrs measured by LC/MS-MS analysis; format: ADME, organism-based; conditions: read-out: BPR

inhibition [1]: Active | inhibition [2]: Active | inhibition [3]: Active | Ratio [4]: 0.9 | concentration at 1 h [5]: 79.1 ng/mL | concentration at 3 h [6]: 1.43 ng/mL | concentration at 0.35 h [7]: 138 ng/mL | concentration at 1 h [8]: 29.3 ng/mL | concentration at 3 h [9]: 3.35 ng/mL | concentration at 6 h [10]: 2.5 ng/mL | concentration at 0.08 h [11]: 558 ng/g | concentration at 0.35 h [12]: 680 ng/g | concentration at 1 h [13]: 159 ng/g | concentration at 6 h [14]: 680 ng/g | concentration at 12 h [15]: 159 ng/g | concentration at 24 h [16]: 6.21 ng/g | concentration at 6 h [17]: 4.52 ng/g | concentration at 12 h [18]: 3.9 ng/g | Kp at 3 h [19]: 1.6 | Kp at 0.08 h [20]: 0.78 | Kp at 0.35 h [21]: 1.6 | Kp at 1 h [22]: 2.01 | Kp at 3 h [23]: 4.34 | concentration at 0.08 h [24]: 1580 ng/mL | concentration at 3 h [25]: 5.64 ng/mL | concentration at 0.08 h [26]: 1660 ng/g | concentration at 0.35 h [27]: 514 ng/g | concentration at 1 h [28]: 225 ng/g | concentration at 3 h [29]: 9.01 ng/g | concentration at 6 h [30]: 5.13 ng/g | Kp at 0.08 h [31]: 1.07 | Kp at 0.35 h [32]: 1.83 | Kp at 3 h [33]: 1.73
Compound: Cc1nc2ccccn2c1-c1csc(Nc2ccc3c(c2)OC(F)(F)O3)n1.Cl
